Measured values published in ChEMBL document CHEMBL6153061, “Sialyl Lewisx Glycomimetics as E- and P-Selectin Antagonists Targeting Hyperinflammation” (ACS Med Chem Lett, 2025).
pKd: −log10 of the molar value. The source made the active and inactive calls. No cut-off for these calls is given here.

Legend:
Mus musculus [1] = experiment: Immunosuppressive activity in thioglycolate induced hyper-inflammation in C57BL/6 wild type mouse model assessed as reduction in macrophages/monocytes levels at 2 micromol/kg, iv pre-administered for 10 min followed by thioglycolate administration for 10 min and further incubated with compound for 1 hr 40 min by flow cytometry in vivo cell recruitment assay; assay type: functional, organism-based; settings: dose 2.0 µmol/kg, time 2.0 hrs
Mus musculus [2] = experiment: Immunosuppressive effect in thioglycolate-induced hyper-inflammatory C57BL/6 wild type mouse model assessed as effect on neutrophil level in […] peritoneal cavity at 2.5 micromol/kg, iv measured after 2 hrs by flow cytometry based in vivo cell recruitment assay; assay type: functional, organism-based; settings: dose 2.5 µmol/kg
Mus musculus [3] = experiment: Immunosuppressive activity in thioglycolate induced hyper-inflammatory C57BL/6 wild type mouse model assessed as effect on neutrophil levels at 2 micromol/kg, iv pre-administered 10 min followed by thioglycolate administration measured after 10 min by flow cytometry analysis; assay type: functional, organism-based; settings: dose 2.0 µmol/kg, time 20.0 min
Mus musculus [4] = experiment: (§1) Immunosuppressive effect in thioglycolate-induced hyper-inflammatory C57BL/6 wild type mouse model assessed as reduction in macrophage/monocyte level in […] peritoneal cavity at 2.5 micromol/kg, iv administered after 24 hrs of thioglycolate injection in peritoneal cavity followed by after 2 hrs treated at 2.5 micromol/kg, ip and followed by after 6 hrs treated at 2.5 micromol/kg, ip and followed by after 15 hrs treated at 2.5 micromol/kg, ip and measured after 3 hrs by flow cytometry based in vivo cell recruitment assay; assay type: functional, organism-based; settings: time 26.0 hrs
Mus musculus [5] = experiment: (§2) Immunosuppressive effect in thioglycolate-induced hyper-inflammatory C57BL/6 wild type mouse model assessed as effect on macrophage/monocytes level in […] peritoneal cavity at 2.5 micromol/kg, iv pre-administered 10 min followed by thioglycolate administration measured after 10 min by flow cytometry based in vivo cell recruitment assay; assay type: functional, organism-based; settings: dose 2.5 µmol/kg, time 20.0 min
Mus musculus [6] = experiment: as §2, with “PSGL-1+” for “macrophage/monocytes”, “micromol/kg,iv” for “micromol/kg, iv”; assay type: functional, organism-based; settings: dose 2.5 µmol/kg, time 20.0 min
Mus musculus [7] = experiment: as §1, with “CD11b+” for “macrophage/monocyte”; assay type: functional, organism-based; settings: time 26.0 hrs
Mus musculus [8] = experiment: as §2, with “CD11b+” for “macrophage/monocytes”; assay type: functional, organism-based; settings: dose 2.5 µmol/kg, time 20.0 min
Mus musculus [9] = experiment: as §1, with “neutrophil” for “macrophage/monocyte”; assay type: functional, organism-based; settings: time 26.0 hrs
Mus musculus [10] = experiment: (§3) Immunosuppressive effect in thioglycolate-induced hyper-inflammatory C57BL/6 wild type mouse model assessed as reduction in neutrophil level in […] peritoneal cavity at 2.5 micromol/kg, iv pre-administered for 10 min followed by thioglycolate administration for 10 min and further incubated with compound for 1 hr 40 min by flow cytometry based in vivo cell recruitment assay; assay type: functional, organism-based; settings: dose 2.5 µmol/kg, time 2.0 hrs
Mus musculus [11] = experiment: as §1, with “PSGL-1+” for “macrophage/monocyte”; assay type: functional, organism-based; settings: time 26.0 hrs
Mus musculus [12] = experiment: as §3, with “thioglycolate induced” for “thioglycolate-induced”, “CD11b+” for “neutrophil”, “micromol/kg,iv” for “micromol/kg, iv”, “cytometry” for “cytometry based”; assay type: functional, organism-based; settings: dose 2.5 µmol/kg, time 2.0 hrs
E-selectin = target: T1, E-selectin (Homo sapiens, UniProt P16581); experiment: Binding affinity to recombinant human E-selectin assessed as dissociation constant by surface plasmon resonance (SPR) analysis
T1 sequence (P16581 whole entry): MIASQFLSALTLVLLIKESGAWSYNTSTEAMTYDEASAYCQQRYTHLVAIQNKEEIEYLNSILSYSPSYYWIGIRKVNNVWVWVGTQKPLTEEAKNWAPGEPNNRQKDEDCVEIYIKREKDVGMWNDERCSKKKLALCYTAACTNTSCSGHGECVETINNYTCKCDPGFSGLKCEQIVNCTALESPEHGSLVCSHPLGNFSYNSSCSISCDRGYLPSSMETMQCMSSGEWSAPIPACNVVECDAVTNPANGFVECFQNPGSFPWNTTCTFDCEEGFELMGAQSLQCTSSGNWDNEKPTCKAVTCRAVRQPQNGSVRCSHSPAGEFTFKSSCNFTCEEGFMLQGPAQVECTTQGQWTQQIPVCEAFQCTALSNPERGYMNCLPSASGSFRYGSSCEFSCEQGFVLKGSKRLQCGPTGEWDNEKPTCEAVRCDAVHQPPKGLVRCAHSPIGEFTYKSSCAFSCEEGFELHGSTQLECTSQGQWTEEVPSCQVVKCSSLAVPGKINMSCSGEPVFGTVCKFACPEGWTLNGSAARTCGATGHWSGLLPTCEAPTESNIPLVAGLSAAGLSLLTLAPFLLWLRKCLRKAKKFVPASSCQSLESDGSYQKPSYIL

P-selectin = target: T2, P-selectin (Homo sapiens, UniProt P16109); experiment: Binding affinity to recombinant human P-selectin assessed as dissociation constant by surface plasmon resonance (SPR) analysis
T2 sequence (P16109 whole entry): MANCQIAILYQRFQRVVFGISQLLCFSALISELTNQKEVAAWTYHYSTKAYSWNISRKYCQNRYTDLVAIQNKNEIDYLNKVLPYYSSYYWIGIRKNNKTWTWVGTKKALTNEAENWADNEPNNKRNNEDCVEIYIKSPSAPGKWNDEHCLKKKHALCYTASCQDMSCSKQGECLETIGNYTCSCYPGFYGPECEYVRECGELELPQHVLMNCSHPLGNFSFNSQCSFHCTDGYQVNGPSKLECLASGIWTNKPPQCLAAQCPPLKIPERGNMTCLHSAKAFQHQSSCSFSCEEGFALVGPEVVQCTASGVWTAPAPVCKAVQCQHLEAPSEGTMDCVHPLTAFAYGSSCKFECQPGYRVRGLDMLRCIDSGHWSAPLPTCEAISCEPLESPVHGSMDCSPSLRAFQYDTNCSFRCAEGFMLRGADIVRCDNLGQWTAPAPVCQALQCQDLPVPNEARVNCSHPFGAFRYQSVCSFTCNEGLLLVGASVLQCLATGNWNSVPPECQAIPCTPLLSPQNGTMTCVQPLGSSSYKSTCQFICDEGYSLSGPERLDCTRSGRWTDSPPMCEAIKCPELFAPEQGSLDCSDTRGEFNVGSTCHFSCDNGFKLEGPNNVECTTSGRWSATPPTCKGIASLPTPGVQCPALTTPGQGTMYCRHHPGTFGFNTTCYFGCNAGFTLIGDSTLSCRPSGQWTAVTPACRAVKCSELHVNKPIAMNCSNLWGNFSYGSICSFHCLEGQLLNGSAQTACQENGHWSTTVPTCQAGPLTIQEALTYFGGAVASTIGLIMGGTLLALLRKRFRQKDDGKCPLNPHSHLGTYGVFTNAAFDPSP

Mus musculus [13] = experiment: as §3, with “thioglycolate induced” for “thioglycolate-induced”, “PSGL-1 positive cell” for “neutrophil”; assay type: functional, organism-based; settings: dose 2.5 µmol/kg, time 2.0 hrs

pKd (E-selectin)	pKd (P-selectin)	Compound	Activity (Mus musculus [1])	Activity (Mus musculus [2])	Activity (Mus musculus [3])	Activity (Mus musculus [4])	Activity (Mus musculus [5])	Activity (Mus musculus [6])	Activity (Mus musculus [7])	Activity (Mus musculus [8])	Activity (Mus musculus [9])	Activity (Mus musculus [10])	Activity (Mus musculus [11])	Activity (Mus musculus [12])	Activity (Mus musculus [13])
		CC(C)OC(=O)[C@H](O[C@@H]1O[C@@H](C)[C@@H](O)[C@@H](O)[C@@H]1O)[C@@H](O[C@@H]1O[C@H](COC(=O)c2ccccc2)[C@@]2(O)CC[C@@H](C(=O)O)O[C@H]2[C@H]1OC(=O)c1ccccc1)C(=O)OC(C)C	Active	Active; Lowering Neutrophil Levels	inactive	Active	inactive	inactive	Active	inactive	Active	Active	Active	Active	
		CC(C)OC(=O)[C@H](O[C@@H]1O[C@@H](C)[C@@H](O)[C@@H](O)[C@@H]1O)[C@@H](O[C@@H]1O[C@H](CO)[C@@]2(O)CC[C@@H](c3nnn[nH]3)O[C@@H]2[C@H]1OC(=O)c1ccccc1)C(=O)OC(C)C	Active		inactive	Active	inactive	inactive	Active	inactive	Active	Active	Active	Active	
		CC(=O)N[C@@H]1[C@@H](O[C@@H]2O[C@@H](C)[C@@H](O)[C@@H](O)[C@@H]2O)[C@H](O[C@@H]2O[C@H](CO)[C@H](O)[C@H](O[C@]3(C(=O)O)C[C@H](O)[C@@H](NC(C)=O)[C@H]([C@H](O)[C@H](O)CO)O3)[C@H]2O)[C@@H](CO)O[C@H]1O		inactive											
6.00	6.00	CC(C)OC(=O)[C@H](O[C@@H]1O[C@@H](C)[C@@H](O)[C@@H](O)[C@@H]1O)[C@@H](O[C@@H]1O[C@H](CO)[C@H](O)[C@H](O[C@H](Cc2ccccc2)C(=O)O)[C@H]1OC(=O)c1ccccc1)C(=O)OC(C)C													
		CC(C)OC(=O)[C@H](O[C@@H]1O[C@@H](C)[C@@H](O)[C@@H](O)[C@@H]1O)[C@@H](O[C@@H]1O[C@H](COC(=O)c2ccccc2)[C@@]2(O)CC[C@@H](c3nnn[nH]3)O[C@@H]2[C@H]1OC(=O)c1ccccc1)C(=O)OC(C)C	Active		inactive	Active	inactive	inactive	Active	inactive	Active	Active	Active	Active	Active
		CC(C)OC(=O)[C@H](O[C@@H]1O[C@@H](C)[C@@H](O)[C@@H](O)[C@@H]1O)[C@@H](O[C@@H]1O[C@H](COC(=O)c2ccccc2)[C@@]2(O)CC[C@H](C(=O)O)O[C@H]2[C@H]1OC(=O)c1ccccc1)C(=O)OC(C)C		inactive											
